Data from article PMC3119665, “A New Drug Design Targeting the Adenosinergic System for Huntington's Disease” (PLoS ONE, 2011).

Tests used:
A2B adenosine receptor = biological target: T1, A2B adenosine receptor (Homo sapiens, UniProt P29275); test: Radioligand binding assay
T1 construct: MDS Pharma Services Taiwan
T1 sequence (P29275 1-332): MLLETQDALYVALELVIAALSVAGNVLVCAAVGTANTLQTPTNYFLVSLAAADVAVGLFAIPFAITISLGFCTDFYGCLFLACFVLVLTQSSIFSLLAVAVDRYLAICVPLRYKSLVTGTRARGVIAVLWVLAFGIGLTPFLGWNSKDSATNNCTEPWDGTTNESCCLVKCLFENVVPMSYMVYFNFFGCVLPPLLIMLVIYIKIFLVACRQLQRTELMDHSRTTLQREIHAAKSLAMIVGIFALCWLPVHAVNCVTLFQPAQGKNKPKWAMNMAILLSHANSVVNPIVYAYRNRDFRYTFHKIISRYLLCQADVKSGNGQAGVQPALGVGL

Adrenergic α 2B = biological target: T2, Adrenergic α 2B (Homo sapiens, UniProt P18089); test: Radioligand binding panel (Table S1); settings: 10 μM T1-11, n 2
T2 construct: purchased MDS Pharma Services Taiwan

Adrenomedullin AM1 = biological target: T3, Adrenomedullin AM1 (Homo sapiens, UniProt O60895+Q16602); test: Radioligand binding panel (Table S1); settings: 10 μM T1-11, n 2
T3 construct: purchased MDS Pharma Services Taiwan

Bombesin, Non-Selective = test: Radioligand binding panel (Table S1); set-up: species or system rat; settings: 10 μM T1-11, n 2
[1] = tested on: Calcium Channel L-Type, Phenylalkylamin.; test: Radioligand binding panel (Table S1); set-up: species or system rat; settings: 10 μM T1-11, n 2
Chemokine CCR5 = biological target: T4, Chemokine CCR5 (Homo sapiens, UniProt P51681); test: Radioligand binding panel (Table S1); settings: 10 μM T1-11, n 2
T4 construct: purchased MDS Pharma Services Taiwan

Chemokine CX3CR1 = biological target: T5, Chemokine CX3CR1 (Homo sapiens, UniProt P49238); test: Radioligand binding panel (Table S1); settings: 10 μM T1-11, n 2
T5 construct: purchased MDS Pharma Services Taiwan

Dopamine D4.2 = biological target: T6, Dopamine D4.2 (Homo sapiens, UniProt P21917, DEL265-296); test: Radioligand binding panel (Table S1); settings: 10 μM T1-11, n 2
T6 construct: purchased MDS Pharma Services Taiwan

Interleukin IL-1 = biological target: T7, Interleukin IL-1 (Mus musculus, UniProt P13504); test: Radioligand binding panel (Table S1); settings: 10 μM T1-11, n 2
T7 construct: purchased MDS Pharma Services Taiwan

Melanocortin MC1 = biological target: T8, Melanocortin MC1 (Homo sapiens, UniProt Q01726); test: Radioligand binding panel (Table S1); settings: 10 μM T1-11, n 2
T8 construct: purchased MDS Pharma Services Taiwan

Melanocortin MC3 = biological target: T9, Melanocortin MC3 (Homo sapiens, UniProt P41968); test: Radioligand binding panel (Table S1); settings: 10 μM T1-11, n 2
T9 construct: purchased MDS Pharma Services Taiwan

Melanocortin MC4 = biological target: T10, Melanocortin MC4 (Homo sapiens, UniProt P32245); test: Radioligand binding panel (Table S1); settings: 10 μM T1-11, n 2
T10 construct: purchased MDS Pharma Services Taiwan

Muscarinic M3 = biological target: T11, Muscarinic M3 (Homo sapiens, UniProt P20309); test: Radioligand binding panel (Table S1); settings: 10 μM T1-11, n 2
T11 construct: purchased MDS Pharma Services Taiwan

Neurotensin NT 1 = biological target: T12, Neurotensin NT 1 (Homo sapiens, UniProt P30989); test: Radioligand binding panel (Table S1); settings: 10 μM T1-11, n 2
T12 construct: purchased MDS Pharma Services Taiwan

[2] = biological target: T13, N-Formyl Peptide Receptor-like, FPRL1 (Homo sapiens, UniProt P25090); test: Radioligand binding panel (Table S1); settings: 10 μM T1-11, n 2
T13 construct: purchased MDS Pharma Services Taiwan

Prostanoid EP2 = biological target: T14, Prostanoid EP2 (Homo sapiens, UniProt P43116); test: Radioligand binding panel (Table S1); settings: 10 μM T1-11, n 2
T14 construct: purchased MDS Pharma Services Taiwan

[3] = biological target: T15, Serotonin (5-Hydroxytryptamine) 5-HT1A (Homo sapiens, UniProt P08908); test: Radioligand binding panel (Table S1); settings: 10 μM T1-11, n 2
T15 construct: purchased MDS Pharma Services Taiwan

[4] = biological target: T16, Serotonin (5-Hydroxytryptamine) 5-HT2B (Homo sapiens, UniProt P41595); test: Radioligand binding panel (Table S1); settings: 10 μM T1-11, n 2
T16 construct: purchased MDS Pharma Services Taiwan

Sigma, Non-Selective = test: Radioligand binding panel (Table S1); set-up: species or system guinea pig; settings: 10 μM T1-11, n 2
Vasopressin V1B = biological target: T17, Vasopressin V1B (Homo sapiens, UniProt P47901); test: Radioligand binding panel (Table S1); settings: 10 μM T1-11, n 2
T17 construct: purchased MDS Pharma Services Taiwan

Vasopressin V2 = biological target: T18, Vasopressin V2 (Homo sapiens, UniProt P30518); test: Radioligand binding panel (Table S1); settings: 10 μM T1-11, n 2
T18 construct: purchased MDS Pharma Services Taiwan

Vitamin D3 = biological target: T19, Vitamin D3 (Homo sapiens, UniProt P11473); test: Radioligand binding panel (Table S1); settings: 10 μM T1-11, n 2
T19 construct: purchased MDS Pharma Services Taiwan

PC12 cells = test: MTT metabolism assay, serum-deprived PC12 cells; assay type: cell-based, rat; settings: 24 h
Protocol: Survival was assessed by the 3-(4,5-dimethylthiazol-2-yl)-2,5-diphenyltetrazolium bromide (MTT) metabolism assay as described elsewhere, [65]. In brief, cells grown on 150-mm plates were washed three times with PBS and resuspended in DMEM. Suspended cells (1×10^4 cells) were plated on 96-well plates and treated with or without the indicated reagent. After incubation for 24 h, MTT (0.5 mg/ml) was added to the medium and incubated for 3 h. After discarding the medium, DMSO (100 µl) was then applied to the well to dissolve the formazan crystals derived from the mitochondrial cleavage of the tetrazolium ring by live cells. The absorbance at 570/630 nm in each well was measured on a micro-enzyme-linked immunosorbent assay reader.

R6/2 mice = test: In vivo 3D MRI imaging of brain atrophy in R6/2 mice; settings: 0.05 mg/ml in drinking water, five weeks
Protocol: Supplementary file pone.0020934.s005.tif: Figure S5 Effect of T1-11 on the shorten lifespan and enlarged ventricle of R6/2 mice. Animals were given the vehicle (1% DMSO; CON) or T1-11 (0.05 mg/ml)-containing drinking water from the age of 7 weeks. (A) Survival was assessed. Specific comparison to R6/2 mice treated with the vehicle (p = 0.306; Mantel-Cox test). (B) Five weeks after T1-11 treatment, 3D-lMRI was performed to determine the ventricle-to-brain ratio of the indicated animals as described. * p<0.05. (TIF) Click here for additional data file.

[5] = n.s. = not significant, no significant binding at 10 µM

T18 sequence (P30518 whole entry): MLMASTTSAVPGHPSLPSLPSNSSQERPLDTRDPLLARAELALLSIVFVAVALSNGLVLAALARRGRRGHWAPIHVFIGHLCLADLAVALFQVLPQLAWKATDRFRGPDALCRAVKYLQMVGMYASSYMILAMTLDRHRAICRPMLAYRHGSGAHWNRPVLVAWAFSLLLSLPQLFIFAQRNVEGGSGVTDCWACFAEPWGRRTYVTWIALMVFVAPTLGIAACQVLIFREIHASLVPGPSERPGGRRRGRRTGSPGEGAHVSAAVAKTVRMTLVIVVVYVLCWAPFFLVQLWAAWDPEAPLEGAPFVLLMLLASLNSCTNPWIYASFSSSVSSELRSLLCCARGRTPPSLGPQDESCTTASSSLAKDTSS
T16 sequence (P41595 whole entry): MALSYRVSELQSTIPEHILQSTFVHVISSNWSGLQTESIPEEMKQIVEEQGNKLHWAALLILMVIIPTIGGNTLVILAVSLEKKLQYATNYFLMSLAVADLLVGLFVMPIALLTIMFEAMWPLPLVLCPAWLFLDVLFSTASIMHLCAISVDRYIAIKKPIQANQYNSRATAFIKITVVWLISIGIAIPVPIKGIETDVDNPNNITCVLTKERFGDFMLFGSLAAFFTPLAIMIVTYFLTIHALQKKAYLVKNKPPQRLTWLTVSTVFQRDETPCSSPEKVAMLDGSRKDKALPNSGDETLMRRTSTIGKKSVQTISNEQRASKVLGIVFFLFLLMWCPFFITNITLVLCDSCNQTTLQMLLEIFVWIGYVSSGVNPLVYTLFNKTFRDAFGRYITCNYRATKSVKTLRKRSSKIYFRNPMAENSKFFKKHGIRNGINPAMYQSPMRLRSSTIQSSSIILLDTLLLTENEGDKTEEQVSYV
T17 sequence (P47901 whole entry): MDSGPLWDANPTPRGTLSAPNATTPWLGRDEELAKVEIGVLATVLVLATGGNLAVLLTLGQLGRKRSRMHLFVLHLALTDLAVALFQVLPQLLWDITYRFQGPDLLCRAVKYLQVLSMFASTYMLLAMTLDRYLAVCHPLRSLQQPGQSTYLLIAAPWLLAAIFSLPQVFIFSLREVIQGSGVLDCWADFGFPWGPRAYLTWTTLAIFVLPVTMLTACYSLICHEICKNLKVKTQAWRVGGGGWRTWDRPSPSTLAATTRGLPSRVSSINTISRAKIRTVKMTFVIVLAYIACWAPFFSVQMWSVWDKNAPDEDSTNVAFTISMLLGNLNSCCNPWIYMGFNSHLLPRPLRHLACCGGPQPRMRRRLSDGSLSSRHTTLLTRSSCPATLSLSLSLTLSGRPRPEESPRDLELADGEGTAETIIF
T3 sequence (Q16602 23-461): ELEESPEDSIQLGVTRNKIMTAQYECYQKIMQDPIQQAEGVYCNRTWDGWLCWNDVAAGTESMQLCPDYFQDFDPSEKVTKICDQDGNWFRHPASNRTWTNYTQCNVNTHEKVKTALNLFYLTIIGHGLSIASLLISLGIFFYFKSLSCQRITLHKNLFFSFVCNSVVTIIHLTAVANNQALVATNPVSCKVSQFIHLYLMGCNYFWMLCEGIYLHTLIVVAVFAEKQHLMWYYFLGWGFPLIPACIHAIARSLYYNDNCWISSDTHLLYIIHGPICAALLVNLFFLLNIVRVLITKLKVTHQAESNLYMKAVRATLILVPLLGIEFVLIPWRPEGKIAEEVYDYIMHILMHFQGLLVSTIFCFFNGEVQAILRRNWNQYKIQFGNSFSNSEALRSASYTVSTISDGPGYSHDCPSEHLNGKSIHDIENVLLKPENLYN
T3 sequence (O60895 43-175 partner): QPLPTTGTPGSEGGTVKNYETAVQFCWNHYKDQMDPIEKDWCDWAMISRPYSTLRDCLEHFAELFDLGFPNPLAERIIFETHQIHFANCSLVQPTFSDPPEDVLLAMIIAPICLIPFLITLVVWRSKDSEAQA
T2 sequence (P18089 whole entry): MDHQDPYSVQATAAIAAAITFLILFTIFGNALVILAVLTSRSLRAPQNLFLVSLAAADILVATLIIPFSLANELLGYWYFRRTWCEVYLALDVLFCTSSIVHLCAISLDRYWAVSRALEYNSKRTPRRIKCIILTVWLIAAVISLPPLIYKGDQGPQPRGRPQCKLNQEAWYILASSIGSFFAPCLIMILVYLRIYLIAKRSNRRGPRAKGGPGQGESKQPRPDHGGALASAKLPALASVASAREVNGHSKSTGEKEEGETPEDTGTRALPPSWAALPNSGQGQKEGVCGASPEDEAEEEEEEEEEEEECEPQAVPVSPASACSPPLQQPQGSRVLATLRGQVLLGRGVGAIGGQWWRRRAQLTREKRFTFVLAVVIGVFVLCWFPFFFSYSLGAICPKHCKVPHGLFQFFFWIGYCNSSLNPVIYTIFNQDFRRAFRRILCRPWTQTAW
T7 sequence (P13504 20-576): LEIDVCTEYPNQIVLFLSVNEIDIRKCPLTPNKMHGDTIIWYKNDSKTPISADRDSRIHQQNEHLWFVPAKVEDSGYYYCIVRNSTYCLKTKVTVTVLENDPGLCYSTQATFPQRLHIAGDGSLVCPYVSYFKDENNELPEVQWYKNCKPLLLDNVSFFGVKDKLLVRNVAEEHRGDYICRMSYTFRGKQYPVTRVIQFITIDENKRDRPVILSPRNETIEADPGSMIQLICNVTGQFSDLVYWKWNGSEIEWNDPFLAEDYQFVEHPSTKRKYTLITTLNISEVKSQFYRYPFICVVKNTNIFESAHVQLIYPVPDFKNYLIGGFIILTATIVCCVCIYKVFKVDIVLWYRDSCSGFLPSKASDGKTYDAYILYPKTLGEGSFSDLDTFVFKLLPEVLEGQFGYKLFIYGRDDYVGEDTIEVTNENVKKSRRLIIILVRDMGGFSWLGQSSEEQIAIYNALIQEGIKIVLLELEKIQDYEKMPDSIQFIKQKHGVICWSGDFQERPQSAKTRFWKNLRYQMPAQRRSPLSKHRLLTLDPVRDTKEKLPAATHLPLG
T13 sequence (P25090 whole entry): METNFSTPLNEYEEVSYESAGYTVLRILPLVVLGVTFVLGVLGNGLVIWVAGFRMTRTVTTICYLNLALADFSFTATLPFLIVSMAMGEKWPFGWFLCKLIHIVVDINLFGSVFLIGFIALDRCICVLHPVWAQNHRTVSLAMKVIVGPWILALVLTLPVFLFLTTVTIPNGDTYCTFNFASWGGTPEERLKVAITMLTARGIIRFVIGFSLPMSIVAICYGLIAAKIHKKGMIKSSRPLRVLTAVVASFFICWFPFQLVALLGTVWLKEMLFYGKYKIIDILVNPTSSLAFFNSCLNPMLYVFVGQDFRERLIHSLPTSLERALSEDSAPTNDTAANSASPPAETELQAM
T14 sequence (P43116 whole entry): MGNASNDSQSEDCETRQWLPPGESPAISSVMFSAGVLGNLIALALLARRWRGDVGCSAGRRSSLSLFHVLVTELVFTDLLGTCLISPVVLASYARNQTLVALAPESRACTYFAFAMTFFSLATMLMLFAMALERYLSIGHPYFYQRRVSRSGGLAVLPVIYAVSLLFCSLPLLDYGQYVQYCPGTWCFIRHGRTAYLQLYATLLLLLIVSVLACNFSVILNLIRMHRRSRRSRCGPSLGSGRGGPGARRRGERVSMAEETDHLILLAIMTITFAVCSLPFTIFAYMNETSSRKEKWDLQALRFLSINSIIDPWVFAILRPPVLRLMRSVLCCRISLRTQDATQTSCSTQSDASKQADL
T6 sequence (P21917 with tags, fused parts or gaps DEL265-296): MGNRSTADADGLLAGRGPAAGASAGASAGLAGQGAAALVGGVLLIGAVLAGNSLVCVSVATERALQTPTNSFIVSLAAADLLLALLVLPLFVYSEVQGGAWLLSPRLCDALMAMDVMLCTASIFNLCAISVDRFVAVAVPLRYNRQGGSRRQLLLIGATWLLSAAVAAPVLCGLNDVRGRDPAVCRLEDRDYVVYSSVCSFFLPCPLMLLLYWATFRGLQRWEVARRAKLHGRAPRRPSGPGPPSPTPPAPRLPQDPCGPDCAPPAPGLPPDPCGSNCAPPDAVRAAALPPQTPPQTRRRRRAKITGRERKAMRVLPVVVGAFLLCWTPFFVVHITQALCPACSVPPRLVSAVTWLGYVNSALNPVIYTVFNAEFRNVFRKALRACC
T10 sequence (P32245 whole entry): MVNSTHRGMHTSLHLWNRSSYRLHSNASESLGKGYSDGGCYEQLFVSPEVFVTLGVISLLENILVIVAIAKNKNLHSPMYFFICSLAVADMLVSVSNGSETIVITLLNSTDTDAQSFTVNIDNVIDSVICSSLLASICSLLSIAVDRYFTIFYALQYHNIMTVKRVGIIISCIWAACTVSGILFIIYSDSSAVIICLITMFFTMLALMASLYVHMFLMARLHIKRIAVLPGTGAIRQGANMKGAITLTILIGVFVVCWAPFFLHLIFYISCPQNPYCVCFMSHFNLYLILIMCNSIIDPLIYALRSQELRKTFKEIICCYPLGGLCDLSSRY
T15 sequence (P08908 whole entry): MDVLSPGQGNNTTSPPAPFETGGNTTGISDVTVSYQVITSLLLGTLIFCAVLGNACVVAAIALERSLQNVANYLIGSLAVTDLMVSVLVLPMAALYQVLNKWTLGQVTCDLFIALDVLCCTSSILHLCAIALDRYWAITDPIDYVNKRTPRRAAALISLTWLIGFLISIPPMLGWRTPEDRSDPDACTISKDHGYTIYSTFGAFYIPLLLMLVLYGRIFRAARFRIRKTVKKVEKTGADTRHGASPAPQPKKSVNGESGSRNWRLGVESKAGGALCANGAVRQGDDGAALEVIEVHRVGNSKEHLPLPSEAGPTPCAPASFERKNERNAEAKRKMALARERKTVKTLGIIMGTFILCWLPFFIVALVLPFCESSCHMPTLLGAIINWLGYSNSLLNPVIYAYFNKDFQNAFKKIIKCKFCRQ

For OC[C@H]1O[C@@H](n2cnc3c(NCc4ccc(O)cc4)ncnc32)[C@H](O)[C@@H]1O [T1-11, N ^6-(4-hydroxybenzyl)adenine riboside], the inhibition at 10 µM (A2B adenosine receptor; 10 μM T1-11, n 2) was 0%, the IC50 (A2B adenosine receptor; [5]) was “n.s” and the Ki (A2B adenosine receptor; [5]) was “n.s”. For the same molecule, the inhibition at 10 µM (Adrenergic α 2B) was 2%, the inhibition at 10 µM (Adrenomedullin AM1) was 11% and the “% Inhibition” value (Bombesin, Non-Selective) was 6%. For the same molecule, the “% Inhibition” value [1] was -7%, the inhibition at 10 µM (Chemokine CCR5) was -8% and the inhibition at 10 µM (Chemokine CX3CR1) was -1%. It also gave an inhibition at 10 µM (Dopamine D4.2) of 3%, an inhibition at 10 µM (Interleukin IL-1) of 4% and an inhibition at 10 µM (Melanocortin MC1) of 3%. It also gave an inhibition at 10 µM (Melanocortin MC3) of 3%, an inhibition at 10 µM (Melanocortin MC4) of 5% and an inhibition at 10 µM (Muscarinic M3) of -6%. The inhibition at 10 µM (Neurotensin NT 1) was 11%, the inhibition at 10 µM [2] was 5% and the inhibition at 10 µM (Prostanoid EP2) was 10%. The inhibition at 10 µM [3] was 9%, the inhibition at 10 µM [4] was 5% and the “% Inhibition” value (Sigma, Non-Selective) was -3%. The inhibition at 10 µM (Vasopressin V1B) was -18%, the inhibition at 10 µM (Vasopressin V2) was -5% and the inhibition at 10 µM (Vitamin D3) was 6%. For the same molecule, the “Protection against serum withdrawal-induced cell death (MTT)” value (PC12 cells) was “protected against serum withdrawal-induced cell death in a dose-dependent manner” and the “Brain atrophy (3D MRI)” value (R6/2 mice) was “slightly ameliorated the brain atrophy of R6/2 mice but the improvement did not reach statistic significance”.
